Consider eight compounds from publication PMC9604662, “New Ceramides and Cerebrosides from the Deep-Sea Far Eastern Starfish Ceramaster patagonicus” (Marine Drugs, 2022).

Series [1] concerns human normal embryonic kidney cells HEK293. The series is described as follows: MTS cell viability assay, HEK293. To be noted: 24 h exposure, mean ± SD, read-out: Half Maximal Inhibitory Concentration (IC50) HEK293. The format is cell-based. How it is done: (§1) In the present study, the cytotoxic activity of compounds 1–3, 5–7, and 9 against human normal embryonic kidney cells HEK293 and a panel of human cancer cells HT-29, SK-MEL-28, and MDA-MB-231 was measured by the MTS assay after 24 h of exposure. Different concentrations of doxorubicin (10, 50, and 100 µM), used as a positive control, and compounds 1–3, 5–7, and 9 (1, 10, and 50 µM) were studied.
(§2) The human embryonic kidney cells HEK293 (ATCC® CRL-1573™), the colorectal adenocarcinoma cell line HT-29 (ATCC® HTB-38), the melanoma SK-MEL-28 (ATCC® HTB-72™), and breast adenocarcinoma MDA-MB-231 (ATCC® HTB-26™) cell lines were obtained from the American Type Culture Collection (Manassas, VA, USA).
(§3) HT 29 cells were cultured in McCoy’s 5A medium; HEK293, SK-MEL-28, and MDA-MB-231 cell lines were maintained in the DMEM medium. The culture media were supplemented with 10% FBS and a 1% penicillin/streptomycin solution. The cell cultures were maintained at 37 °C in a humidified atmosphere containing 5% CO2.
(§4) Compounds 1–3, 5–7, and 9 were dissolved in a sterile dimethyl sulfoxide solution (DMSO) to prepare stock concentrations of 20 mM. Cells were exposed to serially diluted 1–3, 5–7, and 9 (1–100 µM) (with the culture medium used as a diluent) (the final concentration of DMSO was less than 0.5%).
(§5) Doxorubicin (Doxo) (Teva Pharmaceutical Industries, Ltd. (Israel)) was dissolved in sterile PBS to prepare stock concentrations of 10 mM. Cells were exposed to serially diluted Doxo (10–100 µM) (with the culture medium used as a diluent).
(§6) The effect of compounds 1–3, 5–7, and 9 on the viability of tested cell lines was evaluated by the MTS assay. HEK293 (1.0 × 10^4/200 µL), HT-29 (1.0 × 10^4/200 µL), SK-MEL-28 (0.8 × 10^4/200 µL), and MDA-MB-231 (1.0 × 10^4/200 µL) cells were seeded on a 96-well plate and incubated for 24 h at 37°C in a CO2 incubator. The cells were exposed to either DMSO (vehicle control) or Doxo at concentrations of […] (positive control) or 1–3, 5–7, and 9 at concentrations of 1, 10, and 50 µM for 24 h. The cells were subsequently incubated with 15 µL MTS reagent for 3 h, and the absorbance of each well was measured at 490/630 nm on a Power Wave XS microplate reader (BioTek, Winooski, VT, USA). The concentration at which a compound exerted half of its maximal inhibitory effect on cell viability (IC50) was calculated using the AAT-Bioquest® online calculator [27].

Series [2] has as its system colorectal adenocarcinoma cell line HT-29. The series is described as follows: MTS cell viability assay, HT-29. The format is cell-based. The following applies: Homo sapiens, 24 h exposure, mean ± SD, read-out: Half Maximal Inhibitory Concentration (IC50) HT-29. How it is done:
as §1, §2, §3, §4, §5, §6

For series [3], the system named is human breast cancer cells MDA-MB-231. The experiment in a line: Soft agar colony formation assay. To be noted: MDA-MB-231, 336 h, 14 days of incubation, read-out: inhibition of colony formation (decrease in number of colonies) of MDA-MB-231 cells. The format is cell-based. The text has this: Since compounds 1–3, 5–7, and 9 inhibited the viability of breast cancer cells MDA-MB-231, we then tested their ability to inhibit colony formation of MDA-MB-231 cells using the soft agar assay. The colony formation assay, also referred to as soft agar assay, allows for screening the therapeutic efficacy of compounds for anchorage-independent cell growth, which is one of the hallmark characteristics of cellular transformation and uncontrolled growth of cancer cells.
Figure 4 The effect of compounds 1–3, 5–7, and 9 on colony formation of human breast cancer cells MDA-MB-231 (2.4 × 10^4) that were exposed to PBS (control), Doxo (5, 10, and 20 µM), or the compounds under study (5, 10, and 20 µM) and placed on dishes with 0.3% Basal Medium Eagle (BME) agar containing 10% fetal bovine serum FBS, 2 mM L-glutamine, and 25 µg/mL gentamicin. After 14 days of incubation, the number of colonies was counted under a microscope using the ImageJ software program.
MDA-MB-231 cells (2.4 × 10^4/mL) were exposed to either DMSO (vehicle control) or Doxo (positive control) at concentrations of 5, 10, and 20 µM, and to 1–3, 5–7, and 9 at concentrations of 5, 10, 20 µM. Then, the cells were applied on dishes with 0.3% BME agar containing 10% FBS, 2 mM L-glutamine, and 25 µg/mL gentamicin. The cultures were maintained at 37°C in a 5% CO2 incubator for 14 days. The number and size of the colonies were estimated under a Motic microscope AE 20 and using the ImageJ software bundled with 64-bit Java 1.8.0_112 (NIH, Bethesda, Maryland, USA).

In series [4] the test system is breast adenocarcinoma MDA-MB-231 cells. The series is described as follows: MTS cell viability assay, MDA-MB-231. The format is cell-based, human. To be noted: for IC50: Homo sapiens, MDA-MB-231, MTS assay, 24 h exposure, mean ± SD, read-out: Half Maximal Inhibitory Concentration (IC50) MDA-MB-231; for cytotoxic activity against MDA-MB-231 cells (in words): concentrations of up to 50 µM, MTS, 24 h. How it is done:
as §1, §2, §3, §4, §5, §6
A general note: Tetrazolium dyes change colour on reduction, which living cells bring about.

In the next series the test system is melanoma SK-MEL-28 cells. The series is described as follows: MTS cell viability assay, SK-MEL-28. The following applies: Homo sapiens, 24 h exposure, mean ± SD, read-out: Half Maximal Inhibitory Concentration (IC50) SK-MEL-28. In kind it is cell-based. How it is done:
as §1, §2, §3, §4, §5, §6

Series [5] concerns murine leukemic cells L1210. Also on record: method as in doi:10.1021/jo00080a023, PMID 12192142. To be noted: at a concentration of 2 μM; ref [21],[28]; cited from earlier work.
Series [6] deals with a number of human cancer cell lines. Also on record: method as in doi:10.1021/jo00080a023, PMID 12192142. The following applies: at concentrations of 15–34 μM; ref [21],[28]; cited from earlier work.

Turning to `CCCCCCCCCCCCCC[C@@H](O)C(=O)N[C@@H](CO)[C@H](O)[C@H](O)CCCC/C=C\CCCCCCCCC(C)C` [Compound 1, (2S,3S,4R,9Z)-2-[(2R)-2-hydroxyhexadecanoylamino]-19-methyl-9-icosen-1,3,4-triol], the IC50 (in series [1]; in series [2]; in series [4]; in the series with melanoma SK-MEL-28 cells) was over 50 µM each time. In series [3], the inhibition at 20 µM is 46%. The “cytotoxic activity against MDA-MB-231 cells (in words)” value in series [4] is recorded as “slight cytotoxic activity”.

On to `CCCCCCCCCCCCCC[C@@H](O)C(=O)N[C@@H](CO)[C@H](O)[C@H](O)CCCC/C=C\CCCCCCCCCCC(C)C` [Compound 2, (2S,3S,4R,9Z)-2-[(2R)-2-hydroxyhexadecanoylamino]-21-methyl-9-docosen-1,3,4-triol], for which the IC50 in series [1] was over 50 µM; in series [2] it was over 50 µM; in series [4], 48.7 ± 2.4 µM; in the series with melanoma SK-MEL-28 cells, over 50 µM. Moreover, the inhibition at 20 µM in series [3] stood at 68%.

For the compound `CCCCCCCCCCCCCCC[C@@H](O)C(=O)N[C@@H](CO)[C@H](O)[C@H](O)CCCC/C=C\CCCCCCCCCCC(C)C` [Compound 3, (2S,3S,4R,9Z)-2-[(2R)-2-hydroxyheptadecanoylamino]-21-methyl-9-docosen-1,3,4-triol], the IC50 in series [1] was over 50 µM; in series [2], over 50 µM; in series [4], 49.4 ± 1.6 µM; in the series with melanoma SK-MEL-28 cells, over 50 µM. Further, the inhibition at 20 µM in series [3] was determined as 48%.

In the case of `CCCCCCC/C=C/C(C)=C/CC/C=C/[C@@H](O)[C@H](CO[C@@H]1O[C@H](CO)[C@@H](O)[C@H](O)[C@H]1O)NC(=O)[C@H](O)CCCCCCCCCCCCCCCCCCCC` [Compound 5, ophidiacerebroside C], the IC50 in series [1] was over 50 µM; in series [2] it was over 50 µM; in series [4] it was 48.7 ± 1.8 µM; with melanoma SK-MEL-28 cells, over 50 µM. For the same compound, in series [5], the “cytotoxic activity against murine leukemic cells L1210 (in words)” value is given as “strong cytotoxic activity”. Besides, in series [6], the “cytotoxic activity against a number of human cancer cell lines (in words)” value is “moderate cytotoxic activity”. Moreover, in series [3], the inhibition at 20 µM was 54%.

As for `CCCCCCC/C=C/C(C)=C/CC/C=C/[C@@H](O)[C@H](CO[C@@H]1O[C@H](CO)[C@@H](O)[C@H](O)[C@H]1O)NC(=O)[C@H](O)CCCCCCCCCCCCCCCCCCCCC` [Compound 6, ophidiacerebroside D], the IC50 in series [1] is over 50 µM; in series [2], over 50 µM; in series [4], 40.5 ± 0.5 µM; with melanoma SK-MEL-28 cells it was over 50 µM. Further, the “cytotoxic activity against murine leukemic cells L1210 (in words)” value in series [5] is “strong cytotoxic activity”. Besides, the “cytotoxic activity against a number of human cancer cell lines (in words)” value in series [6] is “moderate cytotoxic activity”. Besides, the inhibition at 20 µM in series [3] was determined as 68%.

Turning to `CCCCCCCCCCCCCCCCCCCC[C@@H](O)C(=O)N[C@@H](CO[C@@H]1O[C@H](CO)[C@@H](O)[C@H](O)[C@H]1O)[C@H](O)[C@H](O)CCCCCCCCCC(C)CC` (some centres unmarked) [Compound 7, CE-3-2], the IC50 (in series [1]; in series [2]; in series [4]; with melanoma SK-MEL-28 cells) was over 50 µM throughout. For the same compound, in series [3], the inhibition at 20 µM is 44%. Besides, in series [4], the “cytotoxic activity against MDA-MB-231 cells (in words)” value is “slight cytotoxic activity”.

For the compound `CCCCCCCCCCCCCCCCCCCCCC[C@@H](O)C(=O)N[C@@H](CO[C@@H]1O[C@H](CO)[C@@H](O)[C@H](O)[C@H]1O)[C@H](O)[C@H](O)CCCCCCCCCC(C)CC` (stereo partly drawn) [Compound 9, (2S,3S,4R)-1-O-(β-D-glucopyranosyl)-2-[(2R)-2-hydroxytetracosanoylamino]-14-methylhexadecan-3,4-diol], the IC50 (in series [1]; in series [2]; in series [4]; in the series on melanoma SK-MEL-28 cells) was over 50 µM in each case. Further, the inhibition at 20 µM in series [3] worked out at 50%. Moreover, in series [4], the “cytotoxic activity against MDA-MB-231 cells (in words)” value is reported as “slight cytotoxic activity”.

Take `COc1cccc2c1C(=O)c1c(O)c3c(c(O)c1C2=O)C[C@@](O)(C(=O)CO)C[C@@H]3O[C@H]1C[C@H](N)[C@H](O)[C@H](C)O1` [Doxorubicin, reference compound]: the IC50 in series [1] was 35.7 ± 1.2 µM; in series [2] it was 21.8 ± 3.2 µM; in series [4], 22.3 ± 0.2 µM; in the series with melanoma SK-MEL-28 cells it was 40 ± 5 µM. For the same compound, the inhibition at 20 µM in series [3] is 70%.

One may read the inhibition as the percentage by which the read-out fell short of the control.
